According to US20240228481A1, “NOVEL SULFONAMIDE SERIES OF QR2 INHIBITORS TO TACKLE OXIDATIVE STRESS AND COGNITIVE DECLINE” (CARMEL HAIFA UNIVERSITY ECONOMIC CORPORATION LTD., priority 2021, published 2024):
“And” between values parts separate entries of the source, which are not always exact repeats. Identical values can stand only once. Counter-ions that a name gives are not always drawn.

How the values were obtained:
[1] = molecular target: T1, QR2 (Homo sapiens, UniProt P16083); test: QR2 enzymatic activity assay (menadione/BNAH), fluorescence readout; format: biochemical; set-up: purchased Sigma-Aldrich
T1 sequence (P16083 1-231): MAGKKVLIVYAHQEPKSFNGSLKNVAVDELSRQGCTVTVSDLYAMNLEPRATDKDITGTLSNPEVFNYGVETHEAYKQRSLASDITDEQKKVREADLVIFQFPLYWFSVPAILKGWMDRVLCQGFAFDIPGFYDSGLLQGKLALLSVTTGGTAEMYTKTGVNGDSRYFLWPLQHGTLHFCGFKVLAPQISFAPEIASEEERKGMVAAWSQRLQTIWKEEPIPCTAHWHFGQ

[2] = test system: THLE-2 cells; test: Cell toxicity assay (ATP depletion, CellTiter Glo); settings: 72 h incubation, CellTiter Glo
Description: THLE-2 (CRL-2706™) were grown in the BEGM Bullet Kit (CC-3170) from Lonza. Besides the additives contained in the kit, the medium was further supplemented with 5 ng/mL EGF (Sigma), 70 ng/mL phosphoethanolamine (Sigma) and 10% FBS (Biological Industries). The plates for the THLE-2 needed to be pre-coated with a mixture of 0.01 mg/mL fibronectin, 0.05 mg/mL of PureCol™ EZ Gel Solution (Sigma) and 0.01 mg/mL of BSA dissolved in BEBM medium (Lonza). The coating medium was aspirated before seeding.
THLE-2 cells were exposed to the compounds in a 9-point, 2-fold dilution dose response series with a 100 μM as upper limit, for 72 h. Following the 72 h of exposure to the test compounds, cell viability was determined by measuring the concentration of cellular ATP (CellTiter Glo, Promega). The luminescence signal was measured on a Pherastar FS multi-mode plate reader (BMG Labtech). Each data point was tested in a triplicate.
First, toxicity was assessed in an ATP depletion assay, using THLE-2 cells following a 72 h exposure to a dose response of each of the tested compounds.

[3] = molecular target: T2, QR1 (NQO1) (Homo sapiens, UniProt P15559); test: Selectivity assay with QR1 in place of QR2, fluorescence readout; format: biochemical
T2 construct: purchased Sigma-Aldrich
T2 sequence (P15559 whole entry): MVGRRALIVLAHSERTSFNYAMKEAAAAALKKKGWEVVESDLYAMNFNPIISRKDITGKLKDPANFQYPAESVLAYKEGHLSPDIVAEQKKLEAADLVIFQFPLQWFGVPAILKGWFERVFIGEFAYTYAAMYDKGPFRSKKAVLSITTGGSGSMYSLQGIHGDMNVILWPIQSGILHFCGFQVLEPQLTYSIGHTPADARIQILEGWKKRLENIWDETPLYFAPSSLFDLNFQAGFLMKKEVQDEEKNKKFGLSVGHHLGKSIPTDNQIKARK

[4] = test system: HEK293T cells; test: XTT cell viability assay; format: cell-based; settings: 3 h incubation, 20 nM-20 μM
Description: HEK293FT cells were cultured with penicillin-streptomycin antibiotics in Invitrogen DMEM (Thermo Fisher Scientific) with 10% fetal bovine serum and L-glutamine and grown to 80-90% confluence in 100 mm plates, while being passaged every 2-3 days. For the XTT assay (Biological Industries), cells were then collected, centrifuged, and resuspended in fresh minimum essential medium, and seeded at 50,000 cells/well in 96-well, poly-L-lysine-coated Nunc black, clear flat-bottomed plates (Thermo Fisher Scientific). The next day, the cells were treated with increasing doses of QR2 inhibitors or vehicle for 3 h, and the XTT assay was then carried out as according to the manufacturer's instructions.

Row | Structure (SMILES) | IC50 [1] | median lethal dose (LD50) in THLE cells [2] | IC50 [3] | toxicity in XTT assay [4]
1 | Cc1ccc(-c2cn3cccc(C)c3n2)cc1S(=O)(=O)N1CCNCC1 [YB-537, 8-methyl-2-(4-methyl-3-(piperazin-1-ylsulfonyl)phenyl)imidazo[1,2-a]pyridine hydrochloride] | 0.03 µM | > 100 µM | 18.4 µM | no toxicity
2 | Cc1cccn2cc(-c3cccc(S(=O)(=O)N4CCC(C)CC4)c3)nc12 [YB-800] | 0.03 µM | 78.4 µM and 78.401 µM | > 9.99 µM | no toxicity
